Experimental findings from the Deep4Chem optical property database are described below.

The data set in a line: solvent given as SMILES.

Molecules are shown by their SMILES. Values joined by “and” are separate entries in the source; they are usually repeats but may differ in a detail not shown here. Identical values can stand only once.

`CSc1nc(-c2ccc(-n3c4ccccc4c4ccccc43)cc2)cc(-c2ccc(-n3c4ccccc4c4ccccc43)cc2)n1`: the absorption maximum runs as follows: (in C1CCOC1) 363 nm; (in CN(C)C=O) 364 nm; (in Cc1ccccc1) 364 nm; (in ClC(Cl)Cl) 364 nm.
Under “in ClC(Cl)Cl”, `CCC(CC)n1c2ccccc2c2cc3c(cc21)c1ccccc1n3C(CC)CC` displayed an absorption maximum of 419 nm.
Turning to `CC1(C)CCc2c(c3ccccc3c3nc4ccccc4nc23)O1`, the absorption maximum is recorded as 429.92 nm (in C1CCCCC1); 434.03 nm (in C1CCOC1); 438.98 nm (in CN(C)C=O); 434.97 nm (in CO); 437.06 nm (in ClC(Cl)Cl); 431.03 nm (in c1ccccc1).
`CN(C)c1cc2c(cc1F)c(=O)c1cc(F)c(N3CCCCC3)cc1n2C`: the absorption maximum (in CCO) stood at 364 nm.
Consider `c1ccc(-c2cc3c(oc4ccccc43)c(-c3ccccc3)[o+]2)cc1`, for which the absorption maximum worked out at 385 nm (in CC#N) and 395 nm (in ClCCCl).
`c1ccc(N2c3ccc4ccccc4c3-c3c4ccccc4cc[n+]3[B-]2(c2ccccc2)c2ccccc2)cc1`: under “in Cc1ccccc1”, the absorption maximum is 511 nm.
On to `CC(C)(C)c1ccc2c(c1)c1cc(C(C)(C)C)ccc1n2-c1ccc(N(c2ccc(-c3ccc(-c4ccc(N(c5ccc(-n6c7ccc(C(C)(C)C)cc7c7cc(C(C)(C)C)ccc76)cc5)c5ccc(-n6c7ccc(C(C)(C)C)cc7c7cc(C(C)(C)C)ccc76)cc5)cc4)s3)cc2)c2ccc(-n3c4ccc(C(C)(C)C)cc4c4cc(C(C)(C)C)ccc43)cc2)cc1`, for which, for the setting “in ClCCl”, the absorption maximum amounted to 396 nm.
Same read-out and setting: for `CCCCN(CCCC)c1ccc2c#cc3cc4c#cc5ccc(C(F)(F)F)cc5c#cc#cc5cc(C(F)(F)F)ccc5c#cc4cc3c#cc3ccc(N(CCCC)CCCC)cc3c#cc#cc2c1` the value was 450 nm.
On to `CCCN1C(=O)C(=CC=CC=C2Oc3ccccc3N2CCCS(=O)(=O)[O-])C(=O)N(CCC)C1=S`, for which the absorption maximum came out at 565 nm (in C1COCCO1); 559 nm (in CC(C)=O); 562 nm (in CCCCO); 561 nm (in CCCO); 558 nm (in CCO); 554 nm (in CO). Also, the absorption maximum by setting is: (in ClC(Cl)Cl) 568 nm; (in O) 530 nm.
On to `c1ccc2c(c1)ccc1ncc3ccc4cnccc4c3c12`, for which the absorption maximum (in CC#N) was found to be 403 nm.
With `CC1(C)CC(/C=C/c2ccc(-n3c4ccccc4c4ccccc43)cc2)=CC(=C(C#N)C#N)C1`, the absorption maximum turned out to be 408 nm (in C1CCOC1); 405 nm (in CC#N); 414 nm (in CCO); 407 nm (in CCOC(C)=O); 410 nm (in ClCCl); 422 nm (in c1ccccc1).
For the molecule `CC1(C)c2ccccc2N(c2ccc3nc4c5ccc(N6c7ccccc7C(C)(C)c7ccccc76)cc5c5cc(N6c7ccccc7C(C)(C)c7ccccc76)ccc5c4nc3c2)c2ccccc21`, the absorption maximum (in Cc1ccccc1) turned out to be 456 nm.
Consider `Fc1cc(-c2ccc(-c3nc4ccccc4[nH]3)cc2)ccc1-c1ccc(-c2nc3ccccc3[nH]2)cc1`, for which the absorption maximum (in CN(C)C=O) came out at 343 nm.
`COC(=O)c1c(C(=O)OC)c2ccc(C)nn2c1C` had an absorption maximum (in C1CCCCC1) of 380.4 nm.
As for `F[B-]1(F)n2ccnc2-c2cccc[n+]21`, the absorption maximum runs as follows: (in C1CCCCC1) 298 nm; (in C1CCOC1) 298 nm; (in C1COCCO1) 297 nm; (in CC#N) 295 nm; (in CCCCCC) 297 nm; (in CO) 293 nm. Besides, for the setting “in ClC(Cl)Cl”, the absorption maximum is listed as 300 nm.
Where the note is “in CO”, `CC(C)CCC[C@@H](C)[C@H]1CC[C@H]2[C@@H]3CC=C4C[C@@H](OC(=O)Oc5cc(/C=C/C=C/c6ccc(N(C)C)cc6)ccc5[N+](=O)[O-])CC[C@]4(C)[C@H]3CC[C@]12C` came in with an absorption maximum of 448 nm.
Molecule `COc1ccc2c3ccc(OC)cc3n(-c3ccc(-c4nnc(-c5c(C(C)C)cc(C(C)C)cc5C(C)C)o4)cc3)c2c1` came in with an absorption maximum (in Cc1ccccc1) of 319 nm.
Take `Brc1ccc2cc3c4ccccc4nc(-c4ccco4)c3n2c1`: the absorption maximum (in CS(C)=O) was determined as 411 nm.
`COC(=O)CNC(=O)c1nc2c(N(C)C)nc(N(C)C)nc2n1Cc1ccccc1` came in with an absorption maximum (in C1COCCO1) of 336 nm, an absorption maximum (in CC#N) of 336 nm, an absorption maximum (in CO) of 340 nm and an absorption maximum (in ClCCl) of 343 nm.
Take `F[B-]1(F)n2c(-c3ccccc3)cc(-c3ccccn3)c2N=C2C(c3ccccn3)=CC(c3ccccc3)=[N+]21`: the absorption maximum (in CC#N) was 655 nm.
On to `CCCCN(CCCC)c1ccc(C#Cc2cc(C#Cc3ccc(N(CCCC)CCCC)cc3)c(C#Cc3cc(C(F)(F)F)cc(C(F)(F)F)c3)cc2C#Cc2cc(C(F)(F)F)cc(C(F)(F)F)c2)cc1`, for which, for the setting “in ClCCl”, the absorption maximum worked out at 433 nm.
For the molecule `Oc1ccc2ccccc2c1/C=N/c1ccccc1/N=C/c1c(O)ccc2ccccc12`, the absorption maximum (in CC#N) was found to be 429 nm.
In the case of `COc1ccc2cc(C3=[N+]4C(=Nc5c(-c6ccc7ccccc7c6)cc(-c6ccc7cc(OC)ccc7c6)n5[B-]4(F)F)C(c4ccc5ccccc5c4)=C3)ccc2c1`, the absorption maximum (in ClCCl) is recorded as 718 nm.
The molecule `Oc1ccc2ccccc2c1/C=N/c1cc2nc3ccccc3nc2cc1/N=C/c1c(O)ccc2ccccc12` displayed an absorption maximum (in CC#N) of 420 nm.
As to `CC(C)(C)c1ccc(Oc2cc3c4c(cc(Oc5ccc(C(C)(C)C)cc5)c5c6c(Oc7ccc(C(C)(C)C)cc7)cc7c8c(cc(Oc9ccc(C(C)(C)C)cc9)c(c2c45)c86)C(=O)C2=C7O[B-](F)(F)[n+]4c2ccc2ccccc24)C2=C(C3=O)c3ccc4ccccc4[n+]3[B-](F)(F)O2)cc1`, the absorption maximum (in ClCCl) is listed as 650 nm.
The molecule `COc1ccc(-c2cccc3ncc(-c4ccc(C#N)cc4)n23)cc1` gave an absorption maximum (in ClCCl) of 329 nm.
Consider `Clc1ccc(/C=C/c2ccc(-c3nc4c5cccnc5c5ncccc5c4[nH]3)cc2)cc1`, for which the absorption maximum (in C1CCOC1) is recorded as 376 nm, the absorption maximum (in CC#N) was found to be 368 nm, the absorption maximum (in CO) is 360 nm and the absorption maximum (in ClCCl) was determined as 377 nm.
Turning to `Cc1ccc(-n2c3ccccc3c3cc(-c4ccc5[n+](c4)[B-](F)(F)n4c-5nc5c6ccccc6c6ccccc6c54)ccc32)cc1`, the absorption maximum (in ClC(Cl)Cl) is reported as 444 nm.
For the molecule `CCC(CC)COC1=CC2=C3c4cc(OCC(CC)CC)c(-c5cccs5)n4[B-](F)(F)[n+]4c3n(c3cc(C(C)(C)C)ccc34)[B-](F)(F)[N+]2=C1c1cccs1`, the absorption maximum by setting is: (in C1CCOC1) 792 nm; (in ClCCl) 791 nm.
Turning to `CC[B-]1(CC)c2cccc3c4c5c(cccc5c(c23)-c2cccc(C)[n+]21)[B-](CC)(CC)[n+]1c(C)cccc1-4`, for the setting “in ClCCl”, the absorption maximum was 538 nm.
In the case of `CCn1c2ccccc2c2cc(-c3cc(-c4ccc5c(c4)c4ccccc4n5CC)nc(SC)n3)ccc21`, the absorption maximum came out at 371 nm (in C1CCOC1); 369 nm (in CCOC(C)=O); 374 nm (in CN(C)C=O); 370 nm (in Cc1ccccc1); 370 nm (in ClCCl).
Regarding `COc1cc(OC)cc(-c2ccc(C3=CC(c4ccccc4)=C(c4ccccc4)C3)cc2)c1`, for the setting “in ClCCl”, the absorption maximum was found to be 366 nm.
As to `CCN(CC)c1ccc2cc(C#N)/c(=N\C(=O)c3ccc(C)cc3)oc2c1`, the absorption maximum is, setting by setting: (in CCO) 430 nm; (in ClCCl) 436 nm.
On to `COC(=O)c1cc(=O)n(C)c2cc(-c3cccc(N(C)C)c3)sc12`, for which the absorption maximum runs as follows: (in CC#N) 396 nm; (in ClCCl) 396 nm.
`COc1ccc(N(c2ccc(OC)cc2)c2ccc(-c3ccc4c(c3)C(=O)c3ccccc3C4=O)cc2)cc1`: the absorption maximum is, setting by setting: (in C1CCOC1) 477 nm; (in CCCCCC) 468 nm; (in CCOC(C)=O) 472 nm; (in CCOCC) 472 nm; (in Cc1ccccc1) 481 nm; (in ClC(Cl)(Cl)Cl) 483 nm. This molecule also returned an absorption maximum (in ClCCl) of 485 nm.
Take `O=Cc1ccc(-c2cccc(-c3nc4ccccc4s3)c2O)s1`: the absorption maximum is given as 367 nm (in CCO) and 370 nm (in ClCCl).
For `COc1cc(/C=C/c2nc3ccccc3s2)c(OC)cc1/C=C/c1ccncc1`, the absorption maximum reads like this: (in C1CCOC1) 415 nm; (in CC#N) 410 nm; (in CN(C)C=O) 416 nm; (in Cc1ccccc1) 416 nm.
Take `F[B-]1(F)n2c(nc(-c3ccccc3)c2-c2ccccc2)-c2cccc[n+]21`: the absorption maximum is, setting by setting: (in C1CCCCC1) 429 nm; (in C1CCOC1) 404 nm; (in C1COCCO1) 387 nm; (in CC#N) 393 nm and 363 nm; (in CCCCCC) 428 nm and 427 nm; (in CO) 391 nm. The absorption maximum was 414 nm and 388 nm (in ClC(Cl)Cl); 408 nm (in ClCCl).
Take `CCCCCCCCc1ccc(-c2ccc(/C=C(\C#N)c3ccc(-c4cccc5cccc(-c6ccc(/C(C#N)=C/c7ccc(-c8ccc(CCCCCCCC)cc8)cc7)cc6)c45)cc3)cc2)cc1`: the absorption maximum (in Cc1ccccc1) worked out at 350 nm.
In turn, `C[NH+](C)c1c2ccccc2cc2ccccc12` had an absorption maximum (in O) of 389 nm.
On to `C(=C\c1nc2ccccc2o1)/c1ccccc1`, for which the absorption maximum was 320 nm (in C1CCCCC1) and 320 nm (in CO).
In turn, `CCn1c2ccc(S(=O)(=O)O)cc2c(=O)c2cc3c(cc21)c(=O)c1cc(S(=O)(=O)O)ccc1n3CCCCCC(=O)O` displayed an absorption maximum (in O) of 536 nm.
For `CCC1=C(C)C(=O)n2c1cc1c(c(C)c(C(=O)OCC(C)C)n1CC(C)C)c2=O`, the absorption maximum reads like this: (in C1CCCCC1) 397 nm; (in CO) 397 nm; (in CS(C)=O) 397 nm; (in ClC(Cl)Cl) 399 nm; (in c1ccccc1) 397 nm.
Turning to `CCCCCCCCC1(CCCCCCCC)c2cc(-c3ccc(C#N)cc3)ccc2-c2ccc(-c3ccc(C#N)cc3)cc21`, the absorption maximum (in ClC(Cl)Cl) was found to be 341 nm.
Turning to `C(#Cc1cc2ccc3cc(C#Cc4ccccc4)cc4ccc(c1)c2c34)c1ccccc1`, the absorption maximum (in Cc1ccccc1) amounted to 410 nm.
